{
  "source": "ChEMBL document CHEMBL1201862",
  "about": "“PubChem BioAssay data set” (2004)",
  "key": {"[1]": {"target": "T1, Corticotropin-releasing factor receptor 2/Corticotropin-releasing factor-binding protein (Homo sapiens, UniProt P24387+Q13324)", "T1 sequence (Q13324 whole entry)": "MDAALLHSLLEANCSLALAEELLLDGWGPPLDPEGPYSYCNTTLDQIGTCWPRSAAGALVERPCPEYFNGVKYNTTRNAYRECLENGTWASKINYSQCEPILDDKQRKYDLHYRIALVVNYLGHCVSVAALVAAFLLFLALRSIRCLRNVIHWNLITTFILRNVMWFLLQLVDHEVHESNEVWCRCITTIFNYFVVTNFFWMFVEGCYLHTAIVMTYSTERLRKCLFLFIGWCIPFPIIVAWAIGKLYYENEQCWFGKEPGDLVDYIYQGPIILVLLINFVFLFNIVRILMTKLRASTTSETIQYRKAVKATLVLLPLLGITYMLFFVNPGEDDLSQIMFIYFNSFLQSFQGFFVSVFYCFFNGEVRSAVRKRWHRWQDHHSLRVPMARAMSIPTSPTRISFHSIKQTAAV", "T1 sequence (P24387 whole entry)": "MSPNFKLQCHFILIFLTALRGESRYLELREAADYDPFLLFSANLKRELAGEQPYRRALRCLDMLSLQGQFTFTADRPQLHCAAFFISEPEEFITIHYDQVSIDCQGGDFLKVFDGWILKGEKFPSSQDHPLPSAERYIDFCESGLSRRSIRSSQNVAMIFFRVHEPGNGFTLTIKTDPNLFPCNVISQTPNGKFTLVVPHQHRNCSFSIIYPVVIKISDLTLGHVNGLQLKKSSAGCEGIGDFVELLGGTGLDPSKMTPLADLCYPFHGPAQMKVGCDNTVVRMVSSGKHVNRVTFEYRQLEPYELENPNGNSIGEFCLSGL", "test": "activators of CRF receptor 2 with binding protein – uHTS hits, confirmation (AID 602473)", "assay_type": "functional", "settings": "read-out: EC50_Mean"}, "[2]": {"target": "T1, Corticotropin-releasing factor receptor 2/Corticotropin-releasing factor-binding protein", "test": "Dose Response confirmation of uHTS hits for small molecule antagonists of the CRF-binding protein and CRF-R2 receptor complex.", "assay_type": "functional", "settings": "read-out: IC50_Mean"}, "Vero": {"system": "Vero", "test": "viability loss in Vero cells – cell-based, plate reader, cherry-pick samples, cytotoxicity control, dose response (AID 687020)", "assay_type": "functional", "settings": "Chlorocebus sabaeus"}, "[3]": {"test": "NIH3T3 cell viability loss – ATP luminescence, mouse fibroblasts, counter-screen, dose response (AID 2010);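 further: cells exposed to compound for about 90 hours before reading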", "assay_type": "functional, cell-based"}, "[4]": {"test": "off-target signal loss in HeLa-CEM21 co-culture – HeLa F-luc CTL cells, cherry-picked, counter-screen for HIV-1 Env fusion inhibitor project, dose response (AID 652040);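 further: potency for signal decrease marking cytotoxic or nonspecific inhibition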", "assay_type": "functional, cell-based"}, "[5]": {"test": "Trypanosoma cruzi growth suppression in host cells – NIH3T3 host cells, beta-gal luminescence, confirmation (AID 2044);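 further: intracellular parasites grown in NIH/3T3 mouse fibroblasts as host cells; luminescent beta-galactosidase reporter signal from transgenic T. cruzi replicating inside host cells; inhibitors lower the luminescence signal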", "assay_type": "functional, cell-based"}, "[6]": {"test": "HIV-1 AD8 envelope cell-cell fusion blockers – cherry-pick, dose response (AID 652062);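 further: potency is for inhibitors of fusion seen as a drop in luminescence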", "assay_type": "functional, cell-based"}, "[7]": {"test": "viability loss in CEM21 cells – cell-based, CellTiter-Glo luminescence, cherry-picked, cytotoxicity control for viral fusion inhibitor project, dose response (AID 652042);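 further: potency for signal decrease meaning cytotoxicity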", "assay_type": "functional"}, "[8]": {"test": "blockers of HIV-1 ZM109 envelope-driven cell-cell fusion – HeLa effector, CEM target cells, luciferase, cherry-pick, dose response (AID 652058)", "assay_type": "functional, cell-based"}, "[9]": {"test": "blockers of HIV-1 envelope-mediated cell-cell fusion – cherry-pick, dose response (AID 652057)", "assay_type": "functional, cell-based"}, "H4": {"system": "H4", "test": "Luminescence Cell-Based Dose Response HTS to Identify Activators of 5'UTR Stem-Loop Driven Prion Protein mRNA Translation in H4 Neuroglioblastoma Cells. [Related pubchem assays: 1829 (Project Summary), 1814 (Primary HTS)]", "assay_type": "functional", "settings": "Homo sapiens"}, "[10]": {"target": "Fructose-bisphosphate aldolase (Mycobacterium tuberculosis, UniProt P9WQA3)", "sequence (P9WQA3 whole entry)": "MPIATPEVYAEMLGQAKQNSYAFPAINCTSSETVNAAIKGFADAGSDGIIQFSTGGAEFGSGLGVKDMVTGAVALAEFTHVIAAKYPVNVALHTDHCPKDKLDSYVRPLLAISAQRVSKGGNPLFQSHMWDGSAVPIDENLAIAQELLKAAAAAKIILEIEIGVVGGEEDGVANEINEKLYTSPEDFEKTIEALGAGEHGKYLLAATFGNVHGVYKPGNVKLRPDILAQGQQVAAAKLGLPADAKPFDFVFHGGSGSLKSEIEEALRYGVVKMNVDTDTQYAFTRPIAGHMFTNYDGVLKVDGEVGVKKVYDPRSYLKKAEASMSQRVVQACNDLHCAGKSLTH", "test": "Fluorescence-based biochemical high throughput dose response assay for inhibitors of the fructose-bisphosphate aldolase (FBA) of M. tuberculosis.", "assay_type": "functional"}, "[11]": {"test": "Luminescence Cell-Based Dose Response HTS to Identify Activators of Luciferase Translation or Activity in H4 […] Cells. [Related pubchem assays: 1829 (Project Summary), 1814 (Primary HTS)]", "assay_type": "functional"}, "[12]": {"test": "Luminescence Cell-Based Dose Confirmation HTS to Identify Activators of 5'UTR Stem-Loop Driven Alpha-Synuclein mRNA Translation in H4 Neuroglioblastoma Cells. [Related pubchem assays: 1829 (Project Summary), 1814 (Primary HTS)]", "assay_type": "functional"}, "Beta-galactosidase": {"target": "Beta-galactosidase (Escherichia coli, UniProt Q8VNN2)", "sequence (Q8VNN2 whole entry)": "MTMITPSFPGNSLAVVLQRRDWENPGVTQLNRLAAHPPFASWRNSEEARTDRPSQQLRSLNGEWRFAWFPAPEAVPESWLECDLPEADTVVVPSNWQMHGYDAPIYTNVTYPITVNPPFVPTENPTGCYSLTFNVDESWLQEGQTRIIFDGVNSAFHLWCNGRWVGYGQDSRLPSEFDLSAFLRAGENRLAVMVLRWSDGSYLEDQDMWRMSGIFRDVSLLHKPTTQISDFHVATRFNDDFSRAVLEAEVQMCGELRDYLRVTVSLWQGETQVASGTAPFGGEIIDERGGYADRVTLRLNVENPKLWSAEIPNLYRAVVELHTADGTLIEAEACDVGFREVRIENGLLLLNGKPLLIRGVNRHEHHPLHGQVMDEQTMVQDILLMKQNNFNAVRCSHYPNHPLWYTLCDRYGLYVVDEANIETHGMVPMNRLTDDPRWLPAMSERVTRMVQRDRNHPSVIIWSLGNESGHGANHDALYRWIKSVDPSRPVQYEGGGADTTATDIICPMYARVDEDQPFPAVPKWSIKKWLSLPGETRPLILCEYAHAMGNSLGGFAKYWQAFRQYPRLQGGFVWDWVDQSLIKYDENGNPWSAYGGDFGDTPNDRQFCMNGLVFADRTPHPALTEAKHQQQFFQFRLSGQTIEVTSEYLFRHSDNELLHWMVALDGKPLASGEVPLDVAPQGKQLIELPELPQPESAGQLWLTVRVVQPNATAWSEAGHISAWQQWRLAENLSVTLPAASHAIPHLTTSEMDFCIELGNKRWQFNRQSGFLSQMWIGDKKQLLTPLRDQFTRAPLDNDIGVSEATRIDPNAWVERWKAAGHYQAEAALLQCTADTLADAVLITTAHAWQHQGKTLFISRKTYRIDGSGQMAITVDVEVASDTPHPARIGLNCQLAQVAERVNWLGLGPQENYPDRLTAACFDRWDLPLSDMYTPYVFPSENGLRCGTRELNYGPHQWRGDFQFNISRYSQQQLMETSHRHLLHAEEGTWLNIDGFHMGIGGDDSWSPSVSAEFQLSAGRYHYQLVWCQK", "test": "Dose response counterscreen for EBI2 assay utilizing the enzyme, b-galactosidase.", "assay_type": "functional"}, "[13]": {"target": "T2, Endoribonuclease toxin MazF (Escherichia coli K-12, UniProt P0AE70)", "T2 sequence (P0AE70 whole entry)": "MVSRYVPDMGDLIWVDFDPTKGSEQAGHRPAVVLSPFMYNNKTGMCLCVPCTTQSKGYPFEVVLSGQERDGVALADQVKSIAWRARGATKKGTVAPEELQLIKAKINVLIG", "test": "substrate-only fluorescence increase artefacts – biochemical, single-stranded RNase substrate, counter-screen for MazEF activator project, dose response (AID 588502)", "assay_type": "functional"}, "[14]": {"target": "T3, RNA-binding protein pos-1 (Caenorhabditis elegans, UniProt G5EF15)", "T3 sequence (G5EF15 whole entry)": "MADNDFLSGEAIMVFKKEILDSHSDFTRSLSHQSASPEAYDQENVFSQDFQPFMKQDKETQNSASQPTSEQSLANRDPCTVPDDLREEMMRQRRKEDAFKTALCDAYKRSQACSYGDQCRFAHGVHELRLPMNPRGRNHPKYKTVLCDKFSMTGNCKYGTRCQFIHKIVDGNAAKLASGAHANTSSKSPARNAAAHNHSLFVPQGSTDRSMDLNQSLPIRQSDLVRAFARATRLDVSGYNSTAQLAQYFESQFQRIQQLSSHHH", "test": "disruptors of C. elegans POS-1 RNA interaction – biochemical, fluorescence polarization, dose response (AID 1964);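 further: purified POS-1 fused to maltose binding protein made in E. coli; potency of compounds blocking POS-1 binding to fluorescent RNA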"}, "[15]": {"target": "T4, Sentrin-specific protease 1 (Homo sapiens, UniProt Q9P0U3)", "T4 sequence (Q9P0U3 whole entry, the tested form may be a part)": "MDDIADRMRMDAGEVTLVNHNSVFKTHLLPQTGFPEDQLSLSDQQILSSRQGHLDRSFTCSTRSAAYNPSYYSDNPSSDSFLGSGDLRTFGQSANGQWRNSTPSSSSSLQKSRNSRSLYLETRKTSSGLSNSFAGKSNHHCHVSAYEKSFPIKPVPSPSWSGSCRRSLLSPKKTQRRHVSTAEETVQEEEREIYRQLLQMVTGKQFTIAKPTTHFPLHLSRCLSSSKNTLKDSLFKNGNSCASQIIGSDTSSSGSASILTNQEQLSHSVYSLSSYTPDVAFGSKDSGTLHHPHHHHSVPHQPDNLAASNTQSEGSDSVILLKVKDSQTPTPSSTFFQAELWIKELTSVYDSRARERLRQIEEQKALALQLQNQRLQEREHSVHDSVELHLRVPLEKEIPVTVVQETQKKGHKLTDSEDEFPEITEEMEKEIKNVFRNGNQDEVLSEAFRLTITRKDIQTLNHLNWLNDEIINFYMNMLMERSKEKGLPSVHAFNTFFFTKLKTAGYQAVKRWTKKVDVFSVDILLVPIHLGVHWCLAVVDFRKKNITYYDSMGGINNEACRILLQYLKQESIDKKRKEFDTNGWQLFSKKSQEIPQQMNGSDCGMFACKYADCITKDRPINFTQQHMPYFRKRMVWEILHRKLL", "test": "Dose response confirmation of small molecule inhibitors of the catalytic domain of the SUMO protease, SENP1 in a FRET assay.", "assay_type": "functional", "settings": "read-out: IC50_Mean"}, "[16]": {"target": "T5, Zinc finger protein mex-5 (Caenorhabditis elegans, UniProt Q9XUB2)", "T5 sequence (Q9XUB2 whole entry)": "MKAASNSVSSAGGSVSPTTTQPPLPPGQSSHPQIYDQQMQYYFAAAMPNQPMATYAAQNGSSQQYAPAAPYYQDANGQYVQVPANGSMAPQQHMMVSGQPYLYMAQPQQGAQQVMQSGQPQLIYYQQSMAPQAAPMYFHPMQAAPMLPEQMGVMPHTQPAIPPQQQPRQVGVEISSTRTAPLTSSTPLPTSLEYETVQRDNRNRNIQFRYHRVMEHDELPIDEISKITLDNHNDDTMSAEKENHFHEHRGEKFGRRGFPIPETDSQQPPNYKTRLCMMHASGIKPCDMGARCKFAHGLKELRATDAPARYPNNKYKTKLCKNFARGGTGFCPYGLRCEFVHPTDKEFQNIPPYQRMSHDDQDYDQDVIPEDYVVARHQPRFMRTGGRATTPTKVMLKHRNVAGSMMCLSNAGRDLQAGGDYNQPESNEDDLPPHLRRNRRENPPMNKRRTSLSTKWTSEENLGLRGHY", "test": "potency of MEX-5 RNA-binding blockers – biochemical, C. elegans, fluorescence polarization, dose response (AID 1960)"}, "[17]": {"target": "T4, Sentrin-specific protease 1", "test": "SENP1 catalytic domain blockers, concentration series – biochemical, kinetic FRET, dose response (AID 651697)", "assay_type": "functional", "settings": "read-out: IC50_Mean"}, "[18]": {"target": "T2, Endoribonuclease toxin MazF", "test": "activation of MazEF endoribonuclease cleavage – biochemical, fluorescence, single-stranded RNA substrate, uHTS hits, dose response (AID 588481)", "assay_type": "functional"}, "[19]": {"target": "ATP-dependent translocase ABCB1 (Homo sapiens, UniProt P08183)", "sequence (P08183 whole entry)": "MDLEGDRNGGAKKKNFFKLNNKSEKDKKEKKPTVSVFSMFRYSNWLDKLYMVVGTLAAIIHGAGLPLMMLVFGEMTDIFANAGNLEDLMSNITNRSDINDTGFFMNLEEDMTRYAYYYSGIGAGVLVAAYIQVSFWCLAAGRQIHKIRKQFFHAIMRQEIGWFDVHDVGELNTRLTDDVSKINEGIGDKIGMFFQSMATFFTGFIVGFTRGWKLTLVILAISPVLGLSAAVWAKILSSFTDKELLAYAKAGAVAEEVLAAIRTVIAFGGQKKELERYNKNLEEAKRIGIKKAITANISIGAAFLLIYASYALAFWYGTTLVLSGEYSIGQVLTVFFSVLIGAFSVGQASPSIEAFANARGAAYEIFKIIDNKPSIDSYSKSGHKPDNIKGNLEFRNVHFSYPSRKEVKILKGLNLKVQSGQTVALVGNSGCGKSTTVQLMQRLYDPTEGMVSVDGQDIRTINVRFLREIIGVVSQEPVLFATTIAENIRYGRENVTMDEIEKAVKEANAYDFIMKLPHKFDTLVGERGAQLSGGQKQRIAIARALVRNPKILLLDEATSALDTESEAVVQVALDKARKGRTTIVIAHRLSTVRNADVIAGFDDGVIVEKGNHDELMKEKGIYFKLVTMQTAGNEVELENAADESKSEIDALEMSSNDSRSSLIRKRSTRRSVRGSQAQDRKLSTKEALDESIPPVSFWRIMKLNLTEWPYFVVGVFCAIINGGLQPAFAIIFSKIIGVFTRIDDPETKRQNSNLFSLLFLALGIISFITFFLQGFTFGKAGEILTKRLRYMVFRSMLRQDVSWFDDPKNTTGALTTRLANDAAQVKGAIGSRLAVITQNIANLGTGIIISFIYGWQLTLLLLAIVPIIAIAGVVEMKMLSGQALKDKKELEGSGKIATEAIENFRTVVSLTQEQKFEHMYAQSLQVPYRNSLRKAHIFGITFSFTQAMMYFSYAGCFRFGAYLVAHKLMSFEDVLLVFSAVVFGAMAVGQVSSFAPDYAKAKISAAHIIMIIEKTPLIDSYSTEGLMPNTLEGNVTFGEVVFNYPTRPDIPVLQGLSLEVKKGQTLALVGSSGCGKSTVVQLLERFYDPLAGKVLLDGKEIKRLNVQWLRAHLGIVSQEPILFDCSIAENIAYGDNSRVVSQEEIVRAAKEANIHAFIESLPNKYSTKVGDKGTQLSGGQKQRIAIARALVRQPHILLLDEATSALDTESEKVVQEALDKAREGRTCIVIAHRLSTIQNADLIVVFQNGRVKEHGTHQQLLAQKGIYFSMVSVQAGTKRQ", "test": "inhibition of P-gp mediated JC-1 efflux – Jurkat-DNR cells, flow cytometry, dose response (AID 1689)", "assay_type": "functional"}, "[20]": {"target": "Broad substrate specificity ATP-binding cassette transporter ABCG2 (Homo sapiens, UniProt Q9UNQ0)", "sequence (Q9UNQ0 whole entry)": "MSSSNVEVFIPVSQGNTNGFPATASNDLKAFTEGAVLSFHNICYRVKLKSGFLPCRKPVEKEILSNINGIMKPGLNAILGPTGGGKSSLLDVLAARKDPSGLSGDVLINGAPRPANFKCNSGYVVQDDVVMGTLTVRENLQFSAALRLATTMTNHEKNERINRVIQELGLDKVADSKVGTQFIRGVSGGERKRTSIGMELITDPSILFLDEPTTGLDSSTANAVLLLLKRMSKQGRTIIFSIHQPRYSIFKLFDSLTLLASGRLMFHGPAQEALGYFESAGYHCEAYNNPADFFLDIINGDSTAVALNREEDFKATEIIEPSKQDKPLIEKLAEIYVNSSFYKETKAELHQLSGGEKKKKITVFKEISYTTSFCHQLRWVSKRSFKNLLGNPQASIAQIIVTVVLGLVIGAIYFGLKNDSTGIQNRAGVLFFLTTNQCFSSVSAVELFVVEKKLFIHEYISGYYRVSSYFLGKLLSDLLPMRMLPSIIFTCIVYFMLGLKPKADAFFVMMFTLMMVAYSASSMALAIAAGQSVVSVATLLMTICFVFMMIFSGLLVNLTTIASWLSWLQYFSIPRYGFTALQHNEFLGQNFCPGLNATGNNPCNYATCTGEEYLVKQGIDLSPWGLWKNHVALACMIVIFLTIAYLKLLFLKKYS", "test": "blockers of JC-1 export by ABCG2 – Ig-MXP3 cells, flow cytometry, dose response (AID 1690)", "assay_type": "functional"}},
  "note": "Active and inactive are the calls of the source.",
  "data": [
    {"smiles": "CCCn1c(=N)n(CC(O)COc2ccc(C)cc2)c2ccccc21", "note": "(stereo not drawn)", "values": [
      {"measurement": "EC50", "setting": "[1]", "result": "> 53 µM (inactive)"},
      {"measurement": "IC50", "setting": "[2]", "result": "> 47.1 µM (inactive)"},
      {"measurement": "AC50", "setting": "Vero", "result": "24.6 µM (active)"}
    ]},
    {"smiles": "CCN(CC(O)CON=C1c2ccccc2-c2ccccc21)S(=O)(=O)c1ccc(Cl)cc1", "note": "(stereo not drawn)", "values": [
      {"measurement": "EC50", "setting": "[3]", "result": "> 60 µM (not active)"},
      {"measurement": "AC50", "setting": "[4]", "result": "10.1 µM (active)"},
      {"measurement": "EC50", "setting": "[5]", "result": "2.15 µM (active)"},
      {"measurement": "AC50", "setting": "[6]", "result": "28.6 µM (active)"},
      {"measurement": "AC50", "setting": "[7]", "result": "29.3 µM (active)"},
      {"measurement": "AC50", "setting": "[8]", "result": "16.3 µM (active)"},
      {"measurement": "AC50", "setting": "[9]", "result": "5.8 µM (active)"}
    ]},
    {"smiles": "Cc1ccc(C2CC(c3ccccc3)=NN2c2ccccc2)o1", "note": "(stereo not drawn)", "values": [
      {"measurement": "EC50", "setting": "H4", "result": "27.9 µM (active)"},
      {"measurement": "IC50", "setting": "[10]", "result": "> 0.37 µM (active)"},
      {"measurement": "EC50", "setting": "[11]", "result": "> 120 µM (not active)"},
      {"measurement": "EC50", "setting": "[12]", "result": "111 µM (active)"}
    ]},
    {"smiles": "Cc1c(C(=O)N2CCN(c3ncccn3)CC2)oc2ccc(Cl)cc12", "values": [
      {"measurement": "IC50", "setting": "Beta-galactosidase", "result": "> 80 µM (inactive)"}
    ]},
    {"smiles": "COc1ccc2c(c1)c1nc3ccccc3nc1n2Cc1ccc(OC)c(OC)c1", "values": [
      {"measurement": "EC50", "setting": "[13]", "result": "87.9 µM (inactive)"},
      {"measurement": "EC50", "setting": "[14]", "result": "32.6 µM (active)"},
      {"measurement": "IC50", "setting": "[15]", "result": "6.84 µM (active)"},
      {"measurement": "EC50", "setting": "[16]", "result": "43.1 µM (active)"},
      {"measurement": "IC50", "setting": "[17]", "result": "14.1 µM (active)"},
      {"measurement": "EC50", "setting": "[18]", "result": "> 99 µM (inactive)"}
    ]},
    {"smiles": "N#Cc1ccc(-c2ccc(OCC(=O)NCCc3ccccc3)cc2)cc1", "values": [
      {"measurement": "EC50", "setting": "[19]", "result": "11.1 µM (inactive)"},
      {"measurement": "EC50", "setting": "[20]", "result": "3.76 µM (active)"}
    ]}
  ]
}
